{
  "source": "patent US6107068A",
  "about": "“Coenzyme A disulfide reductase, and inhibitors thereof useful as antimicrobial agents” (The University of British Columbia, priority 1997, dated 2000)",
  "key": {"[1]": {"target": "Coenzyme A disulfide reductase (CoADR) in extracts of Staphylococcus aureus (Staphylococcus aureus, UniProt O52582)", "sequence (O52582 2-438)": "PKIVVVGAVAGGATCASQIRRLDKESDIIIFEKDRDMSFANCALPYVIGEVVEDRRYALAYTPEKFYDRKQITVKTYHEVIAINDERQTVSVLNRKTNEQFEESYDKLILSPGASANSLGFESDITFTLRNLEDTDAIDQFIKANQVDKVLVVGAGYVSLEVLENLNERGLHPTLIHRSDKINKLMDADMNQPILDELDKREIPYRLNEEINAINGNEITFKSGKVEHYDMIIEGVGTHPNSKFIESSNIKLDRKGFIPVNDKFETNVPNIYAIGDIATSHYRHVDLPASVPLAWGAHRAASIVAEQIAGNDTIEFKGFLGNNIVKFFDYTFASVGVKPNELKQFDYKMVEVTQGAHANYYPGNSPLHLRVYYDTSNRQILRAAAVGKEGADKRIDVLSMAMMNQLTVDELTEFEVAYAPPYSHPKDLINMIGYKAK", "test": "Pyridine nucleotide and disulfide dependent reduction of DTNB by dialyzed S. aureus extracts", "type": "biochemical", "procedure": "Concentrations of […] (and dephosphoCoA disulfide) were measured spectrophotometrically at 340 nm (e^340 =6220 M^-1 cm^-1), 260 nm (e^260 =33,600 M^-1 cm^-1), and 450 nm (e^450 =11,000 M^-1 cm^-1), respectively. DTNB assays were performed in Tris-HCl (20 mM), pH 8.0, containing EDTA (1 mM) (TE buffer), and were monitored at 412 nm for the nitrobenzothiolate anion (e^412 =15,600 M^-1 cm^-1 (Ellman (1959) Arch. Biochem. Biophys. 82:70-77)). Protein concentrations were determined by reaction with bicinchoninic acid and copper sulfate (Deutscher (1990) in Meth. Enzymol., vol. 182. San Diego: Academic Press, Inc.). During purification, CoADR activity in crude extracts was monitored by the NADPH and CoA disulfide dependent reduction of DTNB. DTNB and all substrates were added at 0.1 mM. For kinetic analysis of purified CoADR activity, the oxidation of NADPH was measured as the decrease in absorbance at 340 nm (De^340 =6,220 M^-1 cm^-1), and was carried out in Tris-HCl (50 mM), pH 7.8, containing NaCl (50 mM).\nIn order to identify the enzyme responsible for maintaining CoA in its reduced form, S. aureus extracts were analyzed for a disulfide reductase specific for CoA disulfide. An overnight culture (10 ml) of R8325-4 was centrifuged (5,000×g, 10 min), resuspended in 3 ml of TE buffer containing lysostaphin (5 mg/ml), and incubated at 37° C. for 30 min until the suspension became viscous. Glass beads (1 g) and PMSF (to 1 mM) were added, the mixture was vortexed for two minutes and then centrifuged (14,000×g, 10 min) to remove the insoluble cellular debris. The resulting viscous lysate was dialyzed exhaustively (3,600 Mr cutoff) against TE buffer. The dialysate was then assayed for the pyridine nucleotide (1 mM) and CoA disulfide (1 mM) dependent reduction of DTNB (1 mM)."}, "[2]": {"target": "S. aureus coenzyme A disulfide reductase (Staphylococcus aureus, UniProt O52582)", "sequence (O52582 2-438)": "as above", "test": "Steady state kinetic analysis of NADPH oxidation by disulfide substrates catalyzed by purified CoADR (340 nm)", "experimental": "(§1) DTNB assays were performed in Tris-HCl (20 mM), pH 8.0, containing EDTA (1 mM) (TE buffer), and were monitored at 412 nm for the nitrobenzothiolate anion (e^412 =15,600 M^-1 cm^-1 (Ellman (1959) Arch. Biochem. Biophys. 82:70-77)). […] For kinetic analysis of purified CoADR activity, the oxidation of NADPH was measured as the decrease in absorbance at 340 nm (De^340 =6,220 M^-1 cm^-1), and was carried out in Tris-HCl (50 mM), pH 7.8, containing NaCl (50 mM).\n(§2) The specificity of CoADR for these substrates and various other biological disulfides were quantitated kinetically. Kinetic measurements were performed in a 1 cm path-length quartz cuvette maintained at 37° C. […] Enzyme and NADPH were combined in buffer and equilibrated to 37° C., and the reaction was initialized by the addition of the disulfide substrate. The activity of CoADR was monitored at 340 nm as the decrease in absorbance resulting from the oxidation of NADPH. All kinetic measurements were recorded in the linear range, and at least seven substrate concentrations were used for each analysis. Kinetic constants were calculated from a linear least squares fit of the initial velocity data to the Michaelis-Menton equation using the program HyperO."}, "[3]": {"test_system": "CC(C)(COP(=O)(O)O)[C@@H](O)C(=O)NCCC(=O)NCCSSCCNC(=O)CCNC(=O)[C@H](O)C(C)(C)COP(=O)(O)O", "test": "purified protein, by the assay type", "conditions": "other: disulfide substrate varied, NADPH maintained at 200 mM, 37° C., nd = no activity detected", "experimental": "as §1, §2"}, "[4]": {"test_system": "CC(C)(COP(=O)(O)OP(=O)(O)OC[C@H]1O[C@@H](n2cnc3c(N)ncnc32)[C@H](O)[C@@H]1O)[C@@H](O)C(=O)NCCC(=O)NCCSSCCNC(=O)CCNC(=O)[C@H](O)C(C)(C)COP(=O)(O)OP(=O)(O)OC[C@H]1O[C@@H](n2cnc3c(N)ncnc32)[C@H](O)[C@@H]1O", "test": "purified protein, by the assay type", "conditions": "other: disulfide substrate varied, NADPH maintained at 200 mM, 37° C., nd = no activity detected", "experimental": "as §1, §2"}, "[5]": {"test_system": "CC(C)(COP(=O)(O)OP(=O)(O)OC[C@H]1O[C@@H](n2cnc3c(N)ncnc32)[C@H](O)[C@@H]1OP(=O)(O)O)[C@@H](O)C(=O)NCCC(=O)NCCSSCCNC(=O)CCNC(=O)[C@H](O)C(C)(C)COP(=O)(O)OP(=O)(O)OC[C@H]1O[C@@H](n2cnc3c(N)ncnc32)[C@H](O)[C@@H]1OP(=O)(O)O", "test": "purified protein, by the assay type", "conditions": "other: disulfide substrate varied, NADPH maintained at 200 mM, 37° C., nd = no activity detected", "experimental": "as §1, §2"}, "[6]": {"test_system": "CC(C)(COP(=O)(O)OP(=O)(O)OC[C@H]1O[C@@H](n2cnc3c(N)ncnc32)[C@H](O)[C@@H]1OP(=O)(O)O)[C@@H](O)C(=O)NCCC(=O)NCCSSC[C@H](NC(=O)CC[C@H](N)C(=O)O)C(=O)NCC(=O)O", "test": "purified protein, by the assay type", "conditions": "other: disulfide substrate varied, NADPH maintained at 200 mM, 37° C., nd = no activity detected", "experimental": "as §1, §2"}, "[7]": {"test_system": "NC(=O)C1=CN([C@@H]2O[C@H](COP(=O)(O)OP(=O)(O)OC[C@H]3O[C@@H](n4cnc5c(N)ncnc54)[C@H](OP(=O)(O)O)[C@@H]3O)[C@@H](O)[C@H]2O)C=CC1", "test": "purified protein, by the assay type", "experimental": "as §1, §2"}, "[8]": {"test": "Cu2+ catalyzed oxidation of thiols (remaining thiol by DTNB)", "type": "physicochemical", "conditions": "thiol 1 mM, CuCl2 1 mM, Tris-HCl pH 7.5, ambient temperature", "procedure": "To determine the relative stability of CoA to heavy metal-catalyzed oxidation, the rate of Cu^2+ catalyzed oxidation of cysteine, GSH, and CoA were compared. Each sample (2 ml) of thiol (1 mM) in Tris-HCl buffer (20 mM), pH 7.5, containing CuCl2 (1 mM) was incubated at ambient temperature. Thiol determination was then carried out at various times by adding aliquots ([…]) from each sample to a solution ([…]) of DTNB (1 mM) in Tris-HCl buffer (20 mM), pH 8.0, containing EDTA (1 mM). The absorbance of these samples at 412 nm was measured and the concentration of remaining thiol determined."}, "[9]": {"conditions": "background statement, Newton et al. (1996); cited from earlier work"}, "[10]": {"target": "the molecule itself", "test": "gel exclusion chromatography of the native enzyme (approximately 85 kD) compared with SDS-PAGE of the subunit (~50 kD)"}, "[11]": {"conditions": "other: NADPH varied, CoA disulfide maintained at 120 mM, 37° C."}},
  "data": [
    {"molecule": "N[C@@H](CSSC[C@H](N)C(=O)O)C(=O)O", "note": "[cystine]", "values": [
      {"measurement": "function in the NADPH-dependent reduction of DTNB", "setting": "[1]", "result": "did not function"},
      {"measurement": "turnover / activity with CoADR", "setting": "[2]", "result": "No activity could be detected"}
    ]},
    {"molecule": "S. aureus coenzyme A disulfide reductase (Staphylococcus aureus subsp. aureus NCTC 8325)", "values": [
      {"measurement": "Km", "setting": "[3]", "result": 80, "unit": "µM"},
      {"measurement": "Km", "setting": "[4]", "result": 140, "unit": "µM"},
      {"measurement": "Km", "setting": "[5]", "result": 11, "unit": "µM"},
      {"measurement": "Km", "setting": "[6]", "result": 1100, "unit": "µM"},
      {"measurement": "Km", "setting": "[7]; [11]", "result": 1.6, "unit": "µM"},
      {"measurement": "kcat", "setting": "[7]; [11]", "result": "1020 ± 60", "unit": "min⁻¹"},
      {"measurement": "Km", "setting": "[7]; other: at saturating CoA disulfide, 37.0 °C", "result": 2, "unit": "µM"}
    ]},
    {"molecule": "N[C@@H](CCC(=O)N[C@@H](CS)C(=O)NCC(=O)O)C(=O)O", "note": "[GSH, g-glutamyl-cysteinyl-glycine]", "values": [
      {"measurement": "stability to copper-catalyzed autooxidation", "setting": "[8]", "result": "much more stable than cysteine"}
    ]},
    {"molecule": "CC(C)(COP(=O)(O)OP(=O)(O)OC[C@H]1O[C@@H](n2cnc3c(N)ncnc32)[C@H](O)[C@@H]1O)[C@@H](O)C(=O)NCCC(=O)NCCSSCCNC(=O)CCNC(=O)[C@H](O)C(C)(C)COP(=O)(O)OP(=O)(O)OC[C@H]1O[C@@H](n2cnc3c(N)ncnc32)[C@H](O)[C@@H]1O", "note": "[3'-dephospho-CoA disulfide]", "values": [
      {"measurement": "change in kcat as compared to CoA disulfide", "setting": "[2]", "result": "no detectable change"},
      {"measurement": "increase in Km as compared to CoA disulfide", "setting": "[2]", "result": 10, "unit": "fold"}
    ]},
    {"molecule": "CC(C)(CO)[C@@H](O)C(=O)NCCC(=O)NCCSSCCNC(=O)CCNC(=O)[C@H](O)C(C)(C)CO", "note": "[pantethine]", "values": [
      {"measurement": "function in the NADPH-dependent reduction of DTNB", "setting": "[1]", "result": "did not function"},
      {"measurement": "turnover / activity with CoADR", "setting": "[2]", "result": "not turned over"}
    ]},
    {"molecule": "CC(C)(COP(=O)(O)O)[C@@H](O)C(=O)NCCC(=O)NCCSSCCNC(=O)CCNC(=O)[C@H](O)C(C)(C)COP(=O)(O)O", "note": "[4,4'-diphospho-pantethine]", "values": [
      {"measurement": "kcat lower than for 3'-dephospho-CoA disulfide", "setting": "[2]", "result": "2-3 fold"}
    ]},
    {"molecule": "CC(C)(COP(=O)(O)OP(=O)(O)OC[C@H]1O[C@@H](n2cnc3c(N)ncnc32)[C@H](O)[C@@H]1OP(=O)(O)O)[C@@H](O)C(=O)NCCC(=O)NCCS", "note": "[CoA, Coenzyme A]", "values": [
      {"measurement": "stability to heavy metal-catalyzed auto-oxidation", "setting": "[9]", "result": "slightly more stable than glutathione"}
    ]},
    {"molecule": "NC(=O)C1=CN([C@@H]2O[C@H](COP(=O)(O)OP(=O)(O)OC[C@H]3O[C@@H](n4cnc5c(N)ncnc54)[C@H](O)[C@@H]3O)[C@@H](O)[C@H]2O)C=CC1", "note": "[NADH]", "values": [
      {"measurement": "use in the CoA disulfide dependent reduction of DTNB", "setting": "[1]", "result": "cannot be used"}
    ]},
    {"molecule": "Coenzyme A disulfide reductase (CoADR) from Staphylococcus aureus (enzyme) PKIVVVGAVAGGATCASQIRRLDKESDIIIFEKDRDMSFANCALPYVIGEVVEDRRYALAYTPEKFYDRKQITVKTYHEVIAINDERQTVSVLNRKTNEQFEESYDKLILSPGASANSLGFESDITFTLRNLEDTDAIDQFIKANQVDKVLVVGAGYVSLEVLENLNERGLHPTLINRSDKINKLMDADMNQPILDELDKREIPYRLNEEINAINGNEITFKSGKVEHYDMIIEGVGTHPNSKFIESSNIKLDRKGFIPVNDKFETNVPNIYAIGDIATSHYRHVDLPASVPLAWGAHRAASIVAEQIAGNDTIEFKGFLGNNIVKFFDYTFASVGVKPNELKQFDYKMVEVTQGAHANYYPGNSPLHLRVYYDTSNRQILRAAAVGKEGADKRIDVLSMAMMNQLTVDELTEFEVAYAPPYSHPKDLINMIGYKAK", "values": [
      {"measurement": "binding result", "setting": "[10]", "result": "binds"}
    ]}
  ]
}
